This is an account of results in PubChem BioAssay (NCI).

Among the test systems are UO-31 renal; TK-10 renal; XF 498 CNS; HOP-18 NSCLC; M19-MEL melanoma; DMS 114 small cell lung; MDA-MB-435; HS 578T breast; T-47D breast; BT-549 breast.
What all share (test): growth of human tumour cells (NCI), 48 h

Several values for one entry are separate records, joined by “and”; a condition that tells them apart may be missing. Equal entries are not always repeated.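 Each compound was tested at five concentrations against cells in 96-well plates for 48 hours. GI50 marks 50% less growth. TGI marks complete inhibition of growth.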

`CCn1c2c(c3ccccc31)[C@@H](c1ccc(Cl)cc1)CC1C(=O)N(c3ccccc3)C(=O)C21` (stereo partly drawn): the TGI in the experiment on UO-31 renal, with TK-10 renal, in the experiment on XF 498 CNS, in the experiment with HOP-18 NSCLC, in the experiment with M19-MEL melanoma and in the experiment with DMS 114 small cell lung was over 100 µM each time.

Take `Cc1cccc(C)c1N1C(=O)C(=O)C(c2nc3ccccc3s2)/C(=N/NC(=O)c2ccccc2O)C1=O` (stereo not drawn): the TGI is 22.4 µM in the experiment on UO-31 renal; over 100 µM in the experiment on TK-10 renal; over 100 µM in the experiment with XF 498 CNS; 88.6 µM with HOP-18 NSCLC; over 100 µM with M19-MEL melanoma; 60.9 µM in the experiment with DMS 114 small cell lung.

`CCC1(OC(=O)CN)C(=O)OCc2c1cc1n(c2=O)Cc2cc3ccccc3nc2-1` (stereo not drawn): the TGI in the experiment on UO-31 renal was 0.174 µM; in the experiment with MDA-MB-435 it was 0.348 µM and 0.504 µM; in the experiment on HS 578T breast, over 90.7 µM; in the experiment with TK-10 renal, 15.1 µM; with XF 498 CNS, 0.431 µM; in the experiment on HOP-18 NSCLC, 28.4 µM. Besides, the TGI in the experiment with T-47D breast is 0.916 µM; in the experiment with M19-MEL melanoma, 0.237 µM; in the experiment on DMS 114 small cell lung, 0.461 µM and 1.02 µM. The GI50 was 0.13 µM in the experiment with MDA-MB-435; 0.721 µM with TK-10 renal; 0.0328 µM in the experiment on XF 498 CNS; 0.0426 µM in the experiment on T-47D breast; 0.0174 µM with M19-MEL melanoma; 0.459 µM in the experiment with BT-549 breast.

Consider `CCOC(=O)C12C(C(=O)OC)=C(C)N(NC(=O)Nc3ccccc3)C1(N)N(NC(=O)Nc1ccccc1)C(C)=C2C(=O)OC` (stereo not drawn), for which the TGI is over 100 µM with UO-31 renal; over 100 µM with TK-10 renal; 59.1 µM with XF 498 CNS; over 86 µM with HOP-18 NSCLC; 33.2 µM in the experiment with M19-MEL melanoma; 83.6 µM with DMS 114 small cell lung.

In the case of `C1CN(P2(N3CC3)=NP(N3CC3)(N3CC3)=NP(N3CC3)(N3CC3)=N2)CCO1` (stereo not drawn), the TGI in the experiment on UO-31 renal, in the experiment on TK-10 renal, in the experiment on XF 498 CNS, with HOP-18 NSCLC, in the experiment on M19-MEL melanoma and with DMS 114 small cell lung was over 100 µM each time.

Regarding `CC(C)c1cccc(O)c(=O)c1`, the GI50 in the experiment with UO-31 renal is 2.58 µg/mL; in the experiment on MDA-MB-435, 2.14 µg/mL; in the experiment on HS 578T breast, 1.98 µg/mL; with TK-10 renal it was 17.3 µg/mL; in the experiment with T-47D breast it was 0.0075 µg/mL; in the experiment on BT-549 breast, 3.57 µg/mL. Moreover, the TGI in the experiment on UO-31 renal is 35.5 µg/mL and > 71.1 µM; in the experiment with MDA-MB-435, 39 µg/mL; with HS 578T breast it was 38.6 µg/mL; in the experiment on TK-10 renal, > 75 µg/mL and > 100 µM; with XF 498 CNS it was over 100 µM; in the experiment on HOP-18 NSCLC, over 100 µM. For the same compound, the TGI with T-47D breast was 0.0075 µg/mL; with M19-MEL melanoma, over 59.3 µM; in the experiment on BT-549 breast it was 42.4 µg/mL; with DMS 114 small cell lung, 16 µM.

For `COc1ccc(C(=O)CC2=Nc3nnc(CCCCCCCc4nnc5n4C(=O)C(CC(=O)c4ccc(OC)cc4)=N5)n3C2=O)cc1`, the TGI in the experiment on UO-31 renal, in the experiment with TK-10 renal, with XF 498 CNS, with HOP-18 NSCLC, in the experiment with M19-MEL melanoma and with DMS 114 small cell lung was over 100 µM in each case.

In the case of `CCCN(CCC)C(=O)c1nc(N)nc(-c2ccc(OC)cc2)c1-c1ccc(OC)cc1`, the TGI with UO-31 renal, in the experiment with TK-10 renal, with XF 498 CNS, with HOP-18 NSCLC and with DMS 114 small cell lung was over 100 µM throughout.

Turning to `CCCCCCCC/C=C1\CCC(CN2CCOCC2)C1=O` (stereo not drawn), the TGI came to 16.6 µM in the experiment on UO-31 renal; 15.3 µM with MDA-MB-435; 50.6 µM in the experiment with HS 578T breast; 7.42 µM with TK-10 renal; 27.5 µM in the experiment on XF 498 CNS; 25.8 µM with HOP-18 NSCLC. Moreover, the TGI with T-47D breast is 4.57 µM; with M19-MEL melanoma, 26.3 µM; in the experiment on BT-549 breast it was 22.7 µM; with DMS 114 small cell lung, 20.7 µM.

In the case of `CC(C(=O)c1ccccc1)C1(O)C(=O)Nc2ccc(Cl)cc21` (stereo not drawn), the TGI in the experiment on UO-31 renal is 89.7 µM; in the experiment with TK-10 renal, over 100 µM; with XF 498 CNS, over 100 µM; in the experiment on HOP-18 NSCLC, over 100 µM; with M19-MEL melanoma it was 31.6 µM; in the experiment on DMS 114 small cell lung, over 100 µM.

`Cc1c(N)nc(C(CC(N)=O)NCC(N)C(N)=O)nc1C(=O)NC(C(=O)NC(C)C(O)C(C)C(=O)NC(C(=O)NCCc1nc(-c2nc(C(=O)NCCCNC(C)c3ccccc3)cs2)cs1)C(C)O)C(OC1OC(CO)C(O)C(O)C1OC1OC(CO)C(O)C(OC(N)=O)C1O)c1cnc[nH]1` (stereo not drawn): the GI50 with UO-31 renal was 2.9 µM; with MDA-MB-435, 76 µM; with TK-10 renal it was over 100 µM; with T-47D breast it was 23.8 µM. In addition, the TGI is over 100 µM in the experiment with MDA-MB-435; 0.727 µM in the experiment on HS 578T breast; 50 µM and > 100 µM with TK-10 renal; 50 µM in the experiment with XF 498 CNS; 46.8 µM with HOP-18 NSCLC; 50 µM and > 100 µM in the experiment on T-47D breast. Besides, the TGI in the experiment with M19-MEL melanoma was found to be 50 µM; in the experiment with BT-549 breast, 50 µM; in the experiment on DMS 114 small cell lung, 8.75 µM.

As for `C#CC1(O)CCC2[C@@H]3CCc4cc(Oc5nc(F)nc(-c6c7ccccc7c(SCC)n6CCC)n5)ccc4C3CC[C@@]21C` (stereo partly drawn), the TGI in the experiment on UO-31 renal, in the experiment with TK-10 renal, in the experiment on XF 498 CNS, in the experiment on HOP-18 NSCLC, in the experiment on M19-MEL melanoma and in the experiment on DMS 114 small cell lung was over 100 µM throughout.

Turning to `O=C(Nc1ccccc1-c1nn(CN2CCNCC2)c(=S)n(CN2CCNCC2)c1=O)C(F)(F)F`, the TGI amounted to 32.6 µM in the experiment with UO-31 renal; 61.1 µM with TK-10 renal; 63.9 µM in the experiment with HOP-18 NSCLC; 32.1 µM in the experiment with M19-MEL melanoma; 34 µM with DMS 114 small cell lung.

As to `CO[C@H]1C[C@](C)(O)Cc2cc3c(c(O)c21)C(=O)c1c(O)cc2c(c1C3=O)O[C@@H]1O[C@@]2(C)[C@H](O)[C@@H](N(C)C)[C@@H]1O`, the GI50 with UO-31 renal is 1.33 µM; in the experiment on TK-10 renal, 3.89 µM; in the experiment with XF 498 CNS, 1.15 µM; with HOP-18 NSCLC, 1.29 µM; in the experiment on DMS 114 small cell lung, 0.533 µM. For the same compound, the TGI in the experiment with UO-31 renal was 2.85 µM and 7.08 µM; with MDA-MB-435, 5.23 µM; in the experiment on HS 578T breast, 22.6 µM; in the experiment with TK-10 renal, 6.49 µM and 21.5 µM; with XF 498 CNS it was 2.51 µM and 0.689 µM; in the experiment with HOP-18 NSCLC it was 4.3 µM and 8.6 µM. In addition, the TGI in the experiment with T-47D breast was 17.4 µM; in the experiment on M19-MEL melanoma, 2.56 µM and 9.81 µM; with BT-549 breast it was 7.3 µM; in the experiment on DMS 114 small cell lung, 2.32 µM and 1.71 µM.

Turning to `O=C1CNC(=O)c2[nH]cnc2N1`, the TGI with UO-31 renal, in the experiment on TK-10 renal, in the experiment on XF 498 CNS, in the experiment on HOP-18 NSCLC, in the experiment on M19-MEL melanoma and with DMS 114 small cell lung was over 100 µM each time.

In the case of `COC(=O)C1CC(OC(C)=O)C=C2C(=O)CCC21` (stereo not drawn), the TGI in the experiment on UO-31 renal was 80.3 µM; with TK-10 renal it was 77.5 µM; in the experiment with HOP-18 NSCLC it was 64.3 µM; in the experiment on M19-MEL melanoma it was 59.9 µM; with DMS 114 small cell lung it was 30.8 µM.

`N#CC(C#N)=Cc1ccc(CP(=O)(O)O)cc1`: the TGI in the experiment on UO-31 renal, in the experiment on TK-10 renal, in the experiment with XF 498 CNS, with HOP-18 NSCLC, with M19-MEL melanoma and in the experiment on DMS 114 small cell lung was over 100 µM in each case.

As to `CC(=O)NNc1nc(C)c(C(=O)/C=C/c2ccc(Cl)cc2)s1`, the TGI with UO-31 renal, in the experiment on TK-10 renal, in the experiment with HOP-18 NSCLC, in the experiment on M19-MEL melanoma and in the experiment with DMS 114 small cell lung was over 100 µM each time.

As to `CCCCc1c2cnccc2c(CCCC)c2c1[nH]c1ccccc12`, the TGI with UO-31 renal is 29.8 µM; in the experiment on TK-10 renal it was 34.6 µM; in the experiment on XF 498 CNS, 13.3 µM; with HOP-18 NSCLC, 24.8 µM; in the experiment with M19-MEL melanoma it was 24.9 µM; in the experiment on DMS 114 small cell lung it was 18.3 µM.

As for `Cc1ccc(S(=O)(=O)c2ccc(C)cc2[N+](=O)[O-])cc1`, the TGI is over 100 µM in the experiment on UO-31 renal; over 100 µM in the experiment with TK-10 renal; over 100 µM with HOP-18 NSCLC; over 100 µM in the experiment on M19-MEL melanoma; 73.3 µM in the experiment on DMS 114 small cell lung.

In the case of `CC1=NOC(=O)/C1=C/c1ccc([N+](=O)[O-])cc1`, the TGI with UO-31 renal, in the experiment with TK-10 renal, in the experiment with XF 498 CNS, with HOP-18 NSCLC and in the experiment on DMS 114 small cell lung was over 100 µM each time.

In the case of `COC1CCC(OC)C(C2(C3CC(OC)CCC3OC)OC(=O)c3ccccc32)C1` (stereo not drawn), the TGI in the experiment on UO-31 renal, with TK-10 renal, with XF 498 CNS, in the experiment with HOP-18 NSCLC and in the experiment on DMS 114 small cell lung was over 100 µM in each case.

For the compound `CCCCCCCCCCCCCCCCOP(=O)([O-])OCC[N+](C)(C)C`, the GI50 with UO-31 renal was 1.47 µM; in the experiment with MDA-MB-435, 2 µM; in the experiment on HS 578T breast it was 4.21 µM; in the experiment with TK-10 renal it was 0.182 µM; in the experiment with T-47D breast, 4.42 µM; in the experiment on BT-549 breast, 1.63 µM. Also, the TGI in the experiment on MDA-MB-435 is 5.23 µM and 39.3 µM; in the experiment with HS 578T breast, 18.9 µM and 40.7 µM; in the experiment with XF 498 CNS, 60.9 µM; in the experiment on HOP-18 NSCLC, over 100 µM; in the experiment on T-47D breast it was 16.2 µM and 35.9 µM; in the experiment with M19-MEL melanoma it was 41.3 µM. The TGI was 5.87 µM and 17.8 µM in the experiment on BT-549 breast; over 100 µM in the experiment with DMS 114 small cell lung.
